Values quoted from earlier work, collected in US12005095B2, “Eutectic extraction solvents, extraction methods by eutectigenesis using said solvents, and extracts derived from said extraction methods” (Givaudan France Naturals SAS, priority 2015, dated 2024).

System: cellular melanogenesis

## O=C1c2c(O)cc(O)cc2O[C@H](c2ccc(O)c(O)c2)[C@H]1O [taxifolin]
  effect on cellular melanogenesis, in words: inhibit cellular melanogenesis
